In assay [1] the test system is OCI-Ly3 cells. The experiment in a line: Measurement of growth inhibitory activity using OCI-Ly3 cells. The assay is classed as cell-based. As to conditions: Homo sapiens, 144 h, 3 μM compound, 6 days, Cell Titer-Glo, read-out: Cell growth inhibition rate (%) at 3 μM compound. How it is done: Measurement of Growth Inhibitory Activity Using OCI-Ly3 Cells
OCI-Ly3 cells were seeded in a cell culture medium IMDM (Fujifilm Wako Pure Chemical Corporation) containing 20% FCS (fetal calf serum, Thermo Fisher Scientific) and monothioglycerol (Fujifilm Wako Pure Chemical Corporation) so as to be at 1.25×10^3 cells/well on a 96-well plate. […] Subsequently, the luminescence value was measured with Envision (PerkinElmer) on the day of seeding. […] Subsequently, the luminescence value was measured in the same manner. The inhibition rate (%) of the test compound on OCI-Ly3 cell growth was calculated by the following formula. Cell growth inhibition rate (%)=(1−(Luminescent value on day 6 of test compound treatment−Luminescent value before test compound treatment)/(Luminescent value on day 6 without compound addition−Luminescent value before compound treatment))×100
(In ATP-based viability assays light output follows the ATP content of the culture.)

In assay [2] the test system is OCI-Ly3 subcutaneously transplanted tumor. The experiment in a line: Antitumor effect on OCI-Ly3 cell-bearing cancer model. The class given is in vivo, NOG female mice. As to conditions: 10 mg/kg orally twice daily for 3 weeks; average tumor volume increase ratio vs control; NOG mice bearing OCI-Ly3.
Protocol: Antitumor Effect on OCI-Ly3 Cell-Bearing Cancer Model Human diffuse large-cell B-cell lymphoma cells OCI-Ly3 (DSMZ, German Collection of Microorganisms and Cell Cultures) were suspended in a Matrigel (BD Biosciences):HBSS (Thermo Fisher Scientific)=1:1 solution, and 1×10^7 cells were transplanted subcutaneously into the abdomen of NOG female mice (CLEA Japan, Inc.). The tumor diameter of the engrafted tumor was measured, and the tumor volume was calculated by the following formula. Tumor volume=major axis×minor axis×minor axis×(1/2) Individuals with the engrafted tumor having a tumor volume of about 120 mm^3 were selected, and 6 animals per group were used in the experiment. A suspension of the test compound in 0.5% methylcellulose solution (Fujifilm Wako Pure Chemical Corporation) was orally administered at a dose of 10 mg/kg (10 mL/kg) twice daily for 3 weeks. The tumor volume was measured on the day before the start of administration and every 3 to 4 days over time, and the tumor diameter was finally measured the day after the end of administration for 21 days to calculate the tumor volume. The tumor growth of the test compound-administered group compared with the control-administered group was calculated by the following formula as an average tumor volume increase ratio T/C. […]

As a reminder, the inhibition is the change of the read-out against control, counted positive when it falls. Take `CO[C@@H](C)c1c(NC(=O)Nc2cnc(-n3nccn3)c(C(F)(F)F)c2)cnc2ccc(Cl)nc12` [Compound X1, (S)—N-(6-Chloro-4-(1-methoxyethyl)-1,5-naphthyridine-3-yl)-N′-(6-(2H-1,2,3-triazole-2-yl)-5-(trifluoromethyl)pyridine-3-yl)urea]: the inhibition at 3 µM in assay [1] was found to be 97%. Besides, the “T/C (%)” value in assay [2] was 2.0%.

With `CO[C@@H](C)c1c(NC(=O)Nc2cnc(-n3nccn3)c(C(F)(F)F)c2)cnc2ccc(C)nc12` [Compound X2, (S)—N-(4-(1-methoxyethyl)-6-methyl-1,5-naphthyridine-3-yl)-N′-(6-(2H-1,2,3-triazole-2-yl)-5-(trifluoromethyl)pyridine-3-yl)urea], the inhibition at 3 µM in assay [1] is 99%. For the same compound, in assay [2], the “T/C (%)” value was found to be 38.7%.
